The supplement of paper PMC11208160

Experiment: recombinant UMI read abundance after kanamycin selection (control-corrected) (log10(CPM+1)); higher = more efficient recombination; extreme values may be limits of the assay; sequences stand for … in AGTGCAGAGAAAATCGGCCAGTTTTCTCTGCCTGCAGTCCGCATGCCGTGGGACCCCTTGGGTTCTAACCTGTTGCCTAGATTTATGCAGCGGACTGCCTTTCTCCCAAAGTGATAAACCGG…AGGTTGGTTTCACT; site = the 11-nt donor
In short: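 After plating on IPTG (0.07 mM) plus kanamycin, or unselected, in two replicates, recombinant UMIs were PCR-amplified across the donor–target junction and sequenced. The cells were Escherichia coli co-electroporated with a UMI-tagged donor and donor-binding-loop pair library and a target plasmid with a fixed target and T7-inducible IS621 bridge recombinase. Values are log10(CPM+1), with CPM averaged over replicates and scaled by control-derived factors.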
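Note: IS621 bridge recombinase in Escherichia coli cells against a fixed T5 target plasmid.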

| Sequence | recombinant UMI read abundance (log10) |
| --- | --- |
| CTACCTACATGGACCGGTTTTCCCGGTAATCCGTATTTGAG (site CTTCCTACTCT) | 0.0155 |
| CTACTAACATGGACCGGTTTTCCCGGTAATCCGTATTTGAA (site CTACTAACTTA) | 0.909 |
| CTACTAACATGGACCGGTTTTCCCGGTAATCCGTATTTGAA (site CTACTAACTTC) | 0.291 |
| CTACTAACATGGACCGGTTTTCCCGGTAATCCGTATTTGAA (site CTACTAACTTG) | 0 |
| CTACTAACATGGACCGGTTTTCCCGGTAATCCGTATTTGAA (site CTACTAACTTT) | 2.27 |
| CTACTAACATGGACCGGTTTTCCCGGTAATCCGTATTTGGA (site ATACTAACTTC) | 0.387 |
| CTACTAACATGGACCGGTTTTCCCGGTAATCCGTATTTGGA (site CAACTAACTTC) | 0.0111 |
| CTACTAACATGGACCGGTTTTCCCGGTAATCCGTATTTGGA (site CCACTAACTTC) | 0.567 |
| CTACTAACATGGACCGGTTTTCCCGGTAATCCGTATTTGGA (site CGACTAACTTC) | 0.339 |
| CTACTAACATGGACCGGTTTTCCCGGTAATCCGTATTTGGA (site CTAATAACTTC) | 1.38 |
| CTACTAACATGGACCGGTTTTCCCGGTAATCCGTATTTGGA (site CTACAAACTTC) | 0.00657 |
| CTACTAACATGGACCGGTTTTCCCGGTAATCCGTATTTGGA (site CTACCAACTTC) | 0.307 |
| CTACTAACATGGACCGGTTTTCCCGGTAATCCGTATTTGGA (site CTACGAACTTC) | 0.00735 |
| CTACTAACATGGACCGGTTTTCCCGGTAATCCGTATTTGGA (site CTACTAACTAC) | 0.0107 |
| CTACTAACATGGACCGGTTTTCCCGGTAATCCGTATTTGGA (site CTACTAACTCC) | 0.516 |
| CTACTAACATGGACCGGTTTTCCCGGTAATCCGTATTTGGA (site CTACTAACTGC) | 0 |
| CTACTAACATGGACCGGTTTTCCCGGTAATCCGTATTTGGA (site CTACTAACTTA) | 1.4 |
| CTACTAACATGGACCGGTTTTCCCGGTAATCCGTATTTGGA (site CTACTAACTTC) | 1.69 |
| CTACTAACATGGACCGGTTTTCCCGGTAATCCGTATTTGGA (site CTACTAACTTG) | 1.13 |

| Sequence | recombinant UMI read abundance (log10) |
| --- | --- |
| CTACTAACATGGACCGGTTTTCCCGGTAATCCGTATTTGGA (site CTACTAACTTT) | 1.96 |
| CTACTAACATGGACCGGTTTTCCCGGTAATCCGTATTTGGA (site CTACTACCTTC) | 0.0182 |
| CTACTAACATGGACCGGTTTTCCCGGTAATCCGTATTTGGA (site CTACTAGCTTC) | 0.689 |
| CTACTAACATGGACCGGTTTTCCCGGTAATCCGTATTTGGA (site CTACTATCTTC) | 1.4 |
| CTACTAACATGGACCGGTTTTCCCGGTAATCCGTATTTGGA (site CTACTCACTTC) | 0.0167 |
| CTACTAACATGGACCGGTTTTCCCGGTAATCCGTATTTGGA (site CTACTGACTTC) | 0.00472 |
| CTACTAACATGGACCGGTTTTCCCGGTAATCCGTATTTGGA (site CTACTTACTTC) | 0.176 |
| CTACTAACATGGACCGGTTTTCCCGGTAATCCGTATTTGGA (site CTAGTAACTTC) | 0.141 |
| CTACTAACATGGACCGGTTTTCCCGGTAATCCGTATTTGGA (site CTATTAACTTC) | 1.29 |
| CTACTAACATGGACCGGTTTTCCCGGTAATCCGTATTTGGA (site CTCCTAACTTC) | 0.373 |
| CTACTAACATGGACCGGTTTTCCCGGTAATCCGTATTTGGA (site CTGCTAACTTC) | 0.331 |
| CTACTAACATGGACCGGTTTTCCCGGTAATCCGTATTTGGA (site CTTCTAACTTC) | 0.11 |
| CTACTAACATGGACCGGTTTTCCCGGTAATCCGTATTTGGA (site GTACTAACTTC) | 0.0739 |
| CTACTAACATGGACCGGTTTTCCCGGTAATCCGTATTTGGA (site TTACTAACTTC) | 0.417 |
| CTACTAGCATGGACCGGTTTTCCCGGTAATCCGTATTTGAC (site CTACTAGCTGT) | 2.64 |
| CTACTAGCATGGACCGGTTTTCCCGGTAATCCGTATTTGAC (site CTAGTATCTGT) | 0 |
| CTACTATCATGGACCGGTTTTCCCGGTAATCCGTATTTGAA (site CTACTATCTTT) | 2.45 |
| CTACTATCATGGACCGGTTTTCCCGGTAATCCGTATTTGAA (site CTAGTATCTGT) | 0 |
| CTACTCACATGGACCGGTTTTCCCGGTAATCCGTATTTGGA (site CTACTAACTTC) | 0.63 |

| Sequence | recombinant UMI read abundance (log10) |
| --- | --- |
| CTACTCACATGGACCGGTTTTCCCGGTAATCCGTATTTGGA (site CTACTCACTTC) | 2.16 |
| CTACTCACATGGACCGGTTTTCCCGGTAATCCGTATTTGGA (site CTACTGACTTC) | 0.0219 |
| CTACTCACATGGACCGGTTTTCCCGGTAATCCGTATTTGGA (site CTACTTACTTC) | 0.361 |
| CTAGAAACATGGACCGGTTTTCCCGGTAATCCGTATTTGAC (site CTAGAAACTGT) | 2.76 |
| CTAGAAACATGGACCGGTTTTCCCGGTAATCCGTATTTGAC (site CTAGTATCTGT) | 0.00659 |
| CTAGAAACATGGACCGGTTTTCCCGGTAATCCGTATTTGCA (site CTAGAAACTTG) | 2.59 |
| CTAGAAACATGGACCGGTTTTCCCGGTAATCCGTATTTGCA (site CTCGAAACTTG) | 0 |
| CTAGAAACATGGACCGGTTTTCCCGGTAATCCGTATTTGCA (site CTGGAAACTTG) | 1.83 |
| CTAGAAACATGGACCGGTTTTCCCGGTAATCCGTATTTGCA (site CTTGAAACTTG) | 0.422 |
| CTAGAATCATGGACCGGTTTTCCCGGTAATCCGTATTTGAG (site CTAGAATCTCT) | 3.11 |
| CTAGAATCATGGACCGGTTTTCCCGGTAATCCGTATTTGAG (site CTAGTATCTGT) | 0 |
| CTAGACCCATGGACCGGTTTTCCCGGTAATCCGTATTTGGA (site CTAGACCCTTC) | 0.351 |
| CTAGATTCATGGACCGGTTTTCCCGGTAATCCGTATTTGGA (site CTAGATTCTTC) | 2.84 |
| CTAGCATCATGGACCGGTTTTCCCGGTAATCCGTATTTGCC (site CTAGCATCTGG) | 2.4 |
| CTAGCATCATGGACCGGTTTTCCCGGTAATCCGTATTTGCC (site CTAGTATCTGT) | 0 |
| CTAGCCACATGGACCGGTTTTCCCGGTAATCCGTATTTGGA (site GACCAATCTAA) | 0 |
| CTAGCTGCATGGACCGGTTTTCCCGGTAATCCGTATTTGTG (site ATAGCTGCTCA) | 0.0231 |
| CTAGCTGCATGGACCGGTTTTCCCGGTAATCCGTATTTGTG (site CTAGCTGCTCA) | 1.75 |
| CTAGCTGCATGGACCGGTTTTCCCGGTAATCCGTATTTGTG (site GTAGCTGCTCA) | 0.0102 |
